Literature values as cited in US20090275622A1, “NIZATIDINE FORMULATIONS” (priority 2008, published 2009).

Details: crystalline solid

Solubility in water: soluble in water
Compound: CN/C(=C\[N+](=O)[O-])NCCSCc1csc(CN(C)C)n1 [Nizatidine, N-[2-[[[2-[(dimethylamino)methyl]-4-thiazolyl]methyl]thio]ethyl]-N′-methyl-2-nitro-1,1-ethenediamine]
